# Measured values published in patent publication US20200277246A1, “TREATMENT METHOD, COMPOUNDS, AND METHOD OF INCREASING TRPV2 ACTIVITY” (THE FEINSTEIN INSTITUTE FOR MEDICAL RESEARCH, priority 2015, published 2020).
# Several values for one entry are separate records, joined by “and”; a condition that tells them apart may be missing. Equal values may be shown once.
# Legend:
# FLS = FLS invasion, focused library screen (Table 1); assay type: cell-based; conditions: evaluated over 24 hours in vitro
# Description: The in vitro invasiveness of FLS was assayed in a transwell system using Matrigel-coated inserts (BD Biosciences, Franklin Lakes, N.J.), as previously described (Tolboom et al., “Invasiveness of Fibroblast-Like Synoviocytes is an Individual Patient Characteristic Associated with the Rate of Joint Destruction in Patients with Rheumatoid Arthritis,” Arthritis Rheum. 52 (7):1999-2002 (2005); Laragione et al., “The Arthritis Severity Locus Cia5d is a Novel Genetic Regulator of the Invasive Properties of Synovial Fibroblasts,” Arthritis Rheum. 58 (8):2296-2306 (2008), which are hereby incorporated by reference in their entirety). Briefly, 70-80% confluent cells were harvested by trypsin-EDTA digestion, and re-suspended at 2.0×10^4 cells in 500 μl of serum-free DMEM. Cells were placed in the upper compartment of the Matrigel-coated inserts. Where indicated, O1821, LER13, or vehicle was added to the upper chamber. The lower compartment was filled with complete media and the plates were incubated at 37° C. for 24 hours. After 24 hours the upper surface of the insert was wiped with cotton-swabs to remove non-invading cells and the Matrigel layer. The opposite side of the insert was stained with Crystal Violet (Sigma) and the total number of cells that invaded through Matrigel counted at 100× magnification. Experiments were done in duplicate.
# Trpv1 = Trpv1 (Homo sapiens, UniProt Q8NER1); conditions: cited from earlier work
# [1] = test system: cervix carcinoma cell line; assay: Cancer cell invasion, cervix carcinoma; assay type: cell-based
# [2] = test system: FLS actin cytoskeleton, lamellipodia and Trpv2 distribution; assay: Immunofluorescence and confocal microscopy of FLS; assay type: cell-based
# Description: Immunofluorescence was performed as previously reported (Laragione et al., “mTOR Regulates the Invasive Properties of Synovial Fibroblasts in Rheumatoid Arthritis,” Mol. Med. 16 (9-10):352-358 (2010); Chan et al., “The GTPase Rac Regulates the Proliferation and Invasion of Fibroblast-Like Synoviocytes from Rheumatoid Arthritis Patients,” Mol. Med. 13 (5-6):297-304 (2007), which are hereby incorporated by reference in their entirety). Briefly, FLS were cultured on coverslips to 10-20% confluence, starved overnight and then pre-treated for 30 minutes, 60 minutes or 24 h with either DMSO or O1821, in the presence or absence of IL-1β 10-25 ng/ml or PDGF 50 ng/ml in complete media or in serum-free media. Cells were then fixed with 4% formaldehyde for 15 minutes at room temperature and permeabilized with PBS/Triton X-100 0.1% for 5 minutes. Non-specific binding was blocked with 5% nonfat milk. A rabbit anti-Trpv2 (Santa Cruz Biotechnology) was used as primary antibody, and a Alexa Fluor 488 (green) donkey anti-rabbit IgG (Invitrogen) used as secondary antibody. Alexa Fluor 594 (red) Phalloidin (Invitrogen) was used to stain the actin filament. The stained cells were mounted on a glass slide. A Zeiss Axiovert 200 M fluorescent microscope was used for visualization with the appropriate filters, with Zeiss Axioversion 4.7 software. Immunofluorescence microscopy was used for cell cytoskeleton scoring as previously described (Laragione et al., “CXCL10 and its Receptor CXCR3 Regulate Synovial Fibroblast Invasion in Rheumatoid Arthritis,” Arthritis Rheum. 63 (11):3274-3283 (2011), which is hereby incorporated by reference in its entirety). An Olympus FluoView 300 was used for confocal microscopy with a 600× magnification.
# p65 NFκB = p65 NFκB nuclear location by immunofluorescence in FLS; assay type: cell-based; conditions: 5, 10, 30, and 60 minutes, and 24 hours
# MMP-3 = assay: IL-1β-induced MMP-3 expression (qPCR) in RA FLS; assay type: cell-based, human; conditions: IL-1β 10 ng/ml 48 hours, 10 μM, n=6 RA
# Description: The qPCR conditions used have been previously described (Laragione et al., “Cia5d Regulates a New Fibroblast-Like Synoviocyte Invasion-Associated Gene Expression Signature,” Arthritis Res. Ther. 10 (4):R92 (2008), which is hereby incorporated by reference in its entirety). Briefly, total RNA (200 ng) from each sample was reverse transcribed using Superscript III (Invitrogen). MMP-2 (forward-[…] (SEQ ID NO: 1); reverse-GGTATCCATCGCCATGCT (SEQ ID NO: 2) and MMP-3 (forward-CCAGGTGTGGAGTTCCTGA (SEQ ID NO: 3); reverse-[…] (SEQ ID NO: 4)) primers were designed based on the Universal ProbeLibrary (Roche, Indianapolis, Ind.). Reactions were prepared with Absolute Blue qPCR Mix (Thermo Fisher, Waltham, Mass.), and run in duplicate on a LightCycler 480 thermocycler (Roche) using Relative Quantitative Software (Roche). Ct (threshold cycle) values were adjusted for GAPDH in each sample (ΔCt). Fold differences were calculated with the 2^−ΔΔCt method (Livak et al., “Analysis of Relative Gene Expression Data Using Real-Time Quantitative PCR and the 2(-Delta Delta C(T)) Method,” Methods 25 (4):402-408 (2001), which is hereby incorporated by reference in its entirety).
# Chain of Trpv1 (Q8NER1 whole entry, species assumed): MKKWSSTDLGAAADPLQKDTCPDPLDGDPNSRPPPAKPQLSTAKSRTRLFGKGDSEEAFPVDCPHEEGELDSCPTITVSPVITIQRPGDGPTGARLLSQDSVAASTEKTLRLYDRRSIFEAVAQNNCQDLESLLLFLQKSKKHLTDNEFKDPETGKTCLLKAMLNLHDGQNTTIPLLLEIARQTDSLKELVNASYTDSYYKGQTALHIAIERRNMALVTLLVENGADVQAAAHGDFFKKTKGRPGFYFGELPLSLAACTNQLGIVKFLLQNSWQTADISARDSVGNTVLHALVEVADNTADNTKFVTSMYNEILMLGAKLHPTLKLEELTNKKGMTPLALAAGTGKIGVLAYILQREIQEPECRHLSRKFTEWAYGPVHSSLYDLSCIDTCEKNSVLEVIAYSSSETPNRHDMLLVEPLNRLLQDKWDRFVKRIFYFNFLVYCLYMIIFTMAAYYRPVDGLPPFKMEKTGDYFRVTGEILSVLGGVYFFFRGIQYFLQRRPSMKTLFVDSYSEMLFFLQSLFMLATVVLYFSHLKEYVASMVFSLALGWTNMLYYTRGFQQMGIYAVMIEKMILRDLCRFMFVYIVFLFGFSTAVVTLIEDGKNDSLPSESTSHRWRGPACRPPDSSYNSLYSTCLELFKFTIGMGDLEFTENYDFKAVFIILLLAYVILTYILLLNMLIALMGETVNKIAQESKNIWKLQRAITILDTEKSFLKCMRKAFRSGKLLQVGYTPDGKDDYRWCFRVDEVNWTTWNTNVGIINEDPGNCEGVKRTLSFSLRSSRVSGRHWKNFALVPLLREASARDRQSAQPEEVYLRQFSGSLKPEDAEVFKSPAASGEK
Compound,FLS invasion decreased by (FLS),Stimulation of Trpv1 (Trpv1),Cell invasion [1],Distribution of Trpv2 in FLS ([2]; 10 μM),"Actin cytoskeleton rearrangements, lamellipodia, cell morphology ([2]; 10 μM, 30 minutes to 24 hours, PDGF or IL-1β)","Actin cytoskeleton organization, number and distribution of lamellipodia ([2]; RA FLS, 1 μM, 30 minutes)",p65 NFκB activation (nuclear location) (p65 NFκB),Decrease of IL-1β-induced MMP-3 expression (MMP-3)
"C#Cc1cc(O)c(C2C=C(C)CCC2C(=C)C)c(O)c1C1C=C(C)CCC1C(=C)C [Compound 13, (1R,2″R,2R,2″S)-6′-ethynyl-5,5″-dimethyl-2,2″-di(prop-1-en-2-yl)-1,1″,2,2″,3,3″,4,4″-octahydro-[1,1′:3′,1″-terphenyl]-2′,4′-diol]",Decreased by 64%,,,,,,,
C=C(C)[C@@H]1CCC(C)=C[C@H]1c1c(O)cc(C)cc1O [Compound O1821],,does not stimulate,significantly reduce cell invasion,did not significantly change,no significant effect,did not affect,did not change,92% and 90%
